According to EP2695950A1, “Markers for responsiveness to an inhibitor of the fibroblast growth factor receptor” (Blackfield AG, priority 2012, dated 2014):
Like-named read-outs stand apart in the source and are kept apart here.

Key:
[1] = test system: Tumors derived from NIH3T3 cells expressing KRas G12V; experiment: Xenograft mouse model, tumor volume; type: in vivo, mice; details: Figure 3; KRas G12V (positive control); 10mg/kg daily by oral gavage
Protocol: (§1) All animal procedures were approved by the local animal protection committee and the local authorities. Xenograft-experiments were performed in 10 to 15 week old male athymic NMRI-nude-mice (Janvier, Europe). Mice were hold in a 12 hour light-dark-cycle. They got water and standard food ad libitium.
(§2) NIH3T3-cells transduced with empty Vector (puro), empty Vector (puro+zeo), KRAS G12V, FGFR1-α, FGFR1-β, FGFR1-β + cMyc were cultured as described before. For implantation they were resuspended in plain RPMI in a concentration of 50*10^6 cells/ml. 5*10^6 cells were injected subcutaneously in mice, under 2.5% Isolflurane-anaesthesia. Tumorgrowth was monitored every 2nd day by calimetric measurement. Tumorvolumes were calculated by V= […].
(§3) Therapy was started when tumors reached a size of 100mm^3. They were treated daily by oral gavage either with 10mg/kg NVP-BGJ 398 (Novartis) dissolved in vehicle (PEG300, 5%Glucose; 2:1) or with the vehicle-detergent alone. After 8 (KRas), 12 (FGFR1-α and FGFR1-β + cMyc), days of therapy mice were sacrificed by intraperitoneal injection of Ketamin/Xylazine (300/60 mg/kg) and tumors were resected and fixed in 4% formaldehyde for histology.

[2] = test system: Tumors derived from NIH3T3 cells expressing only FGFR1; experiment: Xenograft mouse model, tumor volume; type: in vivo, mice
Protocol: as §1, §2, §3

[3] = test system: Tumors derived from NIH3T3 cells expressing two different splice variants of FGFR1 plus Myc; experiment: Xenograft mouse model, tumor volume; type: in vivo, mice
Protocol: as §1, §2, §3

[4] = test system: Tumors derived from NIH3T3 cells expressing EML4-Alk; experiment: Xenograft mouse model, tumor volume; type: in vivo, mice; details: Figure 6; EML4-Alk (positive control)
[5] = test system: H1581 cell line with Myc downregulated (shMyc); details: Figure 12, different concentrations
Protocol: (§4) All compounds were purchased from commercial suppliers, dissolved in DMSO, and stored at - 20°C. Cells were plated into sterile 96-- - well microtiter plates using a multichannel pipette and cultured overnight. Compounds were then added in serial dilutions. Cellular viability was determined after 96 hours of treatment by measuring cellular ATP content using the CellTiter-- Glo Assay (Promega). Plates were measured on a Mithras LB 940 Plate Reader (Berthold Technologies). GI50 values were determined using the following R package (Frommolt P, Thomas RK, 2008, Standardized high-- - throughput evaluation of cell-- - based compound screens. BMC Bioinformatics. 9:475)

H1581 cell line = details: Figure 12; different concentrations
Protocol: as §4

[6] = test system: FGFR1-amplified and FGFR1 non-amplified cell lines
[7] = Figure 3, FGFR1 plus Myc, 10mg/kg daily by oral gavage

Structure (SMILES)	tumor size [1]	tumor size ([2]; Figure 3, only FGFR1, 10mg/kg daily by oral gavage)	tumor volume ([2]; Figure 5, tumor expressing only FGFR1, treated mouse)	tumor volume ([2]; Figure 6, two different splice variants of FGFR1)	tumor disappearance [3, 7]	tumor volume [3, 7]	tumor volume ([3]; Figure 5, tumor with FGFR1 and c-myc expression, treated mouse)	tumor volume [4]	response to FGFR inhibition [5]	response to FGFR inhibition (H1581 cell line)	IC50 values ([6]; Figure 8, cell lines expressing high amounts of FGFR and Myc)	IC50 values ([6]; Figure 9, cell lines H1581 and A427, high FGFR, higher FGFR1β/FGFR1α ratio, high Myc expression)
CCN1CCN(c2ccc(Nc3cc(N(C)C(=O)Nc4c(Cl)c(OC)cc(OC)c4Cl)ncn3)cc2)CC1 [BGJ398]	strong tumor growth	stable disease	did not shrink and even little grew	stable disease under treatment	disappeared within ten days of treatment	strong reduction of tumor volume	completely disappeared after ten days of treatment	increase in tumor volume				
CCN(CC)CCCCNc1ncc2cc(-c3cc(OC)cc(OC)c3)c(NC(=O)NC(C)(C)C)nc2n1 [PD173074]									less response	highly sensitive/responsive	lower IC50 values	lower IC50 values
